According to PubChem BioAssay (NCI):
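All cell lines were grown in 96-well plates and treated with compound for 48 hours. TGI denotes the concentration required for complete inhibition of growth.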

What was measured:
Experiment in all cases: DTP human tumour cell line panel, 48 h
786-0 renal = tested on: 786-0 renal
HCC-2998 colon = tested on: HCC-2998 colon
IGROV1 ovarian = tested on: IGROV1 ovarian
M14 melanoma = tested on: M14 melanoma
MDA-MB-435 = tested on: MDA-MB-435
SF-268 CNS = tested on: SF-268 CNS
SF-295 CNS = tested on: SF-295 CNS
SK-MEL-5 melanoma = tested on: SK-MEL-5 melanoma
SK-OV-3 ovarian = tested on: SK-OV-3 ovarian
SN12C renal = tested on: SN12C renal
SNB-19 CNS = tested on: SNB-19 CNS

SMILES	TGI (786-0 renal)	TGI (HCC-2998 colon)	TGI (IGROV1 ovarian)	TGI (M14 melanoma)	TGI (MDA-MB-435)	TGI (SF-268 CNS)	TGI (SF-295 CNS)	TGI (SK-MEL-5 melanoma)	TGI (SK-OV-3 ovarian)	TGI (SN12C renal)	TGI (SNB-19 CNS)
O=C1/C(=C/C=C/c2ccccc2)CCC1CNc1ccccc1 (centres undefined)	41.2 µM	> 100 µM	> 71.8 µM	> 100 µM	> 86 µM	> 100 µM	> 100 µM	> 100 µM	> 100 µM	63.9 µM	> 89.8 µM
COc1cc2c(cc1OCCCCCCCCCCN1C(=O)c3cccc4cccc(c34)C1=O)N=C[C@@H]1CCCN1C2=O	55.9 µM	27.5 µM	18.4 µM	54.6 µM	18.8 µM	37.3 µM	27.4 µM	22.8 µM	19.8 µM	18.3 µM	57.6 µM
CNC1(c2cc3ccccc3s2)CCCCC1	39.7 µM	28.7 µM	84.6 µM	35.7 µM	36.6 µM	42.8 µM	> 100 µM	36 µM	> 100 µM	> 100 µM	> 100 µM
C=C(C)C1CCC(C(=O)O)CC1 (centres undefined)	> 100 µM	> 100 µM	> 100 µM	> 100 µM	> 100 µM	> 100 µM	> 100 µM	> 100 µM	> 100 µM	> 100 µM	> 100 µM
OC(CC1CCCCN1)c1ccc2c(c1)oc1ccccc12 (centres undefined)	> 100 µM	> 100 µM	> 100 µM	45 µM	> 100 µM	> 100 µM	> 100 µM	34.1 µM	> 100 µM	> 100 µM	> 100 µM
O=C1CS(=O)(=O)C(c2cccc(Oc3ccccc3)c2)N1c1ccc(Cl)cc1 (centres undefined)	36.5 µM	20.8 µM	39 µM	76.2 µM	73.4 µM	> 100 µM	> 100 µM	26.3 µM	> 100 µM	57.7 µM	> 100 µM
CN(/N=C/c1ccc(C(=O)O)cc1)C1=NCCCCN1	> 100 µM	> 100 µM	> 100 µM	> 100 µM	> 100 µM	> 100 µM	> 100 µM	> 100 µM	> 100 µM	> 100 µM	> 100 µM
Cc1ccc(-n2[nH]nc(C(N)=O)c2=O)cc1	> 100 µM	> 100 µM	> 100 µM	> 100 µM	> 100 µM	> 100 µM	> 100 µM	> 100 µM	> 100 µM	> 100 µM	> 100 µM
C=CCn1c(N)c(C#N)c(C#N)c1CCC	> 100 µM	> 100 µM	> 100 µM	> 100 µM	> 100 µM	> 100 µM	> 100 µM	> 100 µM	> 100 µM	> 100 µM	> 100 µM
O=c1[nH]c2cc(C(F)(F)F)ccc2nc1C(F)(F)F	> 100 µM	> 100 µM	> 100 µM	> 100 µM	85.2 µM	> 100 µM	> 100 µM	35.7 µM	> 100 µM	> 100 µM	> 100 µM
CS(=O)(=O)C(C#N)c1nc2ccccc2nc1Cl (centres undefined)	> 100 µM	> 100 µM	> 100 µM	> 100 µM	> 100 µM	> 100 µM	> 100 µM	> 27.1 µM	> 100 µM	> 100 µM	> 100 µM
COc1ccc2nc(N/N=C/c3sccc3C)cc(C)c2c1	27.6 µM	41.2 µM	32.4 µM	25.3 µM	43.9 µM	47.8 µM	21.7 µM	25.5 µM	32.1 µM	48.2 µM	> 100 µM
Cc1ccc(C(=O)N/N=C(\N=Nc2cccc([N+](=O)[O-])c2)c2ccc(N(CCC#N)CCC#N)cc2C)cc1	> 100 µM	> 100 µM	> 100 µM	> 67.6 µM	54.3 µM	> 100 µM	> 92 µM	28.6 µM	> 85.2 µM	> 100 µM	> 100 µM
COC(=O)[C@@H]1C=C[C@H](OC2OC(COC(C)=O)C(OC(C)=O)C(OC(C)=O)C2OC(C)=O)n2c(=O)n(-c3ccccc3)c(=O)n21 (some centres undefined)	2.83 µM	21.9 µM	12 µM	5.77 µM	11.9 µM	8.17 µM	15.5 µM	7 µM	29.4 µM	7.95 µM	25.8 µM
N[C@@H]1CCN(c2c(F)cc3c(=O)c(C(=O)O)cn4c3c2Oc2c-4ccc3c2ccc2ccccc23)C1	39.6 µM	3.56 µM	36.3 µM	> 100 µM	> 100 µM	> 100 µM	> 100 µM	> 100 µM	> 100 µM	> 100 µM	10.4 µM
Cc1cc(C)nc(NS(=O)(=O)c2ccc(Nc3c4ccccc4nc4ccc(C(=O)Nc5ccc(S(N)(=O)=O)cc5)cc34)cc2)n1	> 100 µM	> 100 µM	> 100 µM	> 100 µM	> 100 µM	> 100 µM	> 100 µM	> 100 µM	> 100 µM	> 100 µM	> 100 µM
Cc1nc2ccc(Br)cc2c(=O)n1-c1nnc(C(C)(C)C)s1	> 10 µM	> 10 µM	> 10 µM	> 10 µM	> 10 µM	> 10 µM	> 10 µM	> 10 µM	> 10 µM	> 10 µM	> 10 µM
CC(=O)C(C(c1ccccc1)N1CCOCC1)N1CCOCC1 (centres undefined)	> 100 µM	35.8 µM	> 100 µM	> 100 µM	> 100 µM	> 100 µM	> 100 µM	> 100 µM	> 100 µM	> 100 µM	> 100 µM
COC(=O)C1=C(OC(=O)/C(=C/c2ccccc2)c2ccc(Cl)cc2Cl)C(C(=O)OC)[C@@]2(O)[C@@H](C(=O)OC)[C@H](C)C[C@@H]1[C@@H]2C(=O)OC (some centres undefined)	> 100 µM	> 100 µM	> 100 µM	> 100 µM	> 100 µM	> 100 µM	> 100 µM	> 100 µM	> 100 µM	> 100 µM	> 100 µM
